Like-named read-outs stand apart in the source and are kept apart here.
How the values were obtained:
[1] = tested on: fibrinolysis (plasminogen-containing fibrin plates, human standard plasma); test: Fibrinolysis test (lysis haloes on plasminogen-containing fibrin plates); assay type: biochemical; conditions: area of lysis haloes less lysis area without substance, 24 hours at 37° C.
Source text: The formation of a clinically manifest (relatively large) thrombus can be prevented in various ways. For one, the factors which are involved in the formation of the primary thrombus, such as blood platelet aggregation or the blood clotting system, can be eliminated. On the other hand, the dissolution of the primary thrombus can be accelerated by potentiating endogeneous fibrinolysis. A potentiation of endogeneous fibrinolysis can also serve to dissolve already clinically manifest thrombi again. The fibrinolytic action of a substance is thus of great significance in the prophylaxis and therapy of thrombosis. The fibrinolytic action of the substances according to the invention was determined in the test below.
Fibrinolysis was determined by means of plasminogen-containing fibrin plates.
Petri dishes, dia. 9 cm, were prewarmed to 40° C. 3 ml of a 2% solution of fibrinogen (Behringwerke, Marburg) in water, 1 ml of a plasminogen solution, 2 CTA/ ml (Behringwerke, Marburg), 3 ml of a 1% agarose solution (Serva, Heidelberg) in 50 mM TRIS/HCl, pH 7.8 and 1 ml of a solution of 15 U/ml of thrombin (Behringwerke, Marburg) in water were pipetted into the dishes with swirling. After cooling the plates, wells of 5 mm diameter were punched out.
0.1 ml of plasma (human standard plasma, Behringwerke, Marburg), 0.8 ml of water and 0.1 ml of solution of the test substance in various concentrations were incubated for 10 minutes at 37° C. […] The precipitate was taken up in 0.1 ml of buffer (20 mM TRIS/HCl, 100 mM NaCl, 2.7 mM EDTA, pH 7.8).
After 24 hours at 37° C., the lysis haloes were planimetered. The areas of the lysis haloes less the lysis areas without addition of substance serve as a measure for the fibrinolysis-increasing activity.

[2] = tested on: radical formation by leucocytes; test: Test on anti-inflammatory action: inhibition of luminol-potentiated chemiluminescence in whole blood; assay type: cell-based, rabbit; conditions: Oryctolagus cuniculus, Leucocyte, 1.5 h, read-out: IC50 (50% inhibition of luminol-potentiated chemiluminescence)
[3] = tested on: blood clotting (activated clotting system); test: Clotting test, activated partial thromboplastin time (aPTT); assay type: biochemical; conditions: prolongation of 150% of the blank value as reference point; converted by heparin calibration curve
Procedure: The inhibition of blood clotting can be measured in a simple manner by means of the activated partial thromboplastin time aPTT. It gives information about the general inhibition of the activated clotting system. In order to decrease the incidence of hemorrhages, as low as possible an inhibition of blood clotting is desired.
Clotting test, aPTT 0.1 ml of plasma and 0.1 ml of Pathromtin^R (Behringwerke, Marburg) are incubated at 37° C. for 2 minutes and 0.1 ml of 25 mM CaCl2 solution is added. The clotting time is measured in a Schnitger & Gross coagulometer. The agent is made up for 5 individual determinations per concentration.
The prlongation of the clotting time is converted into heparin units by means of a calibration curve.

bleeding time = test: Influence on the bleeding time (rat tail); assay type: in vivo; conditions: rats, 5 minutes before bleeding, compared to control
Procedure: A piece of tail about 2 mm long was cut from rats. The time until bleeding had stopped was measured. The test substance in various concentrations or physiological saline solution (control) was administered to the animals 5 minutes before causing the bleeding. Groups of 20 animals were treated. The proiongalion of the bleeding time compared to the control was expressed in percent.

[4] = tested on: blood clotting (activated clotting system); conditions: standard heparin from the firm Pharmindustrie; cited from earlier work

Compound | Fibrinolysis at 2 μg/ml [1] [mm^2] | IC50 [2] [µg/mL] | heparin units (inhibition of blood clotting, aPTT) [3] [u/mg] | further results
O=C(NCCCCCCNC(=O)[C@H](OS(=O)(=O)O)[C@@H](OS(=O)(=O)O)[C@H](O[C@@H]1O[C@H](COS(=O)(=O)O)[C@H](OS(=O)(=O)O)[C@H](OS(=O)(=O)O)[C@H]1OS(=O)(=O)O)[C@@H](COS(=O)(=O)O)OS(=O)(=O)O)[C@H](OS(=O)(=O)O)[C@@H](OS(=O)(=O)O)[C@H](O[C@@H]1O[C@H](COS(=O)(=O)O)[C@H](OS(=O)(=O)O)[C@H](OS(=O)(=O)O)[C@H]1OS(=O)(=O)O)[C@@H](COS(=O)(=O)O)OS(=O)(=O)O.[Na].[Na].[Na].[Na].[Na].[Na].[Na].[Na].[Na].[Na].[Na].[Na].[Na].[Na].[Na].[Na] [Example 23, Hexadecasodium N,N'-1,6-hexanediylbis-[2,3,5,6-tetra-O-sulfo-4-O-(2,3,4,6-tetra-O-sulfo-β-D-galactopyranosyl)-D-gluconamide]] | 21.6 | 225 | 30.9 | –
O=C(NCCCCCCCCCCCCNC(=O)[C@H](OS(=O)(=O)O)[C@@H](OS(=O)(=O)O)[C@H](O[C@@H]1O[C@H](COS(=O)(=O)O)[C@H](OS(=O)(=O)O)[C@H](OS(=O)(=O)O)[C@H]1OS(=O)(=O)O)[C@@H](COS(=O)(=O)O)OS(=O)(=O)O)[C@H](OS(=O)(=O)O)[C@@H](OS(=O)(=O)O)[C@H](O[C@@H]1O[C@H](COS(=O)(=O)O)[C@H](OS(=O)(=O)O)[C@H](OS(=O)(=O)O)[C@H]1OS(=O)(=O)O)[C@@H](COS(=O)(=O)O)OS(=O)(=O)O.[Na].[Na].[Na].[Na].[Na].[Na].[Na].[Na].[Na].[Na].[Na].[Na].[Na].[Na].[Na].[Na] [Example 25, Hexadecasodium N,N'-1,12-dodecanediylbis-[2,3,5,6-tetra-O-sulfo-4-O-(2,3,4,6-tetra-O-sulfo-β-D-galactopyranosyl)-D-gluconamide]] | – | 155 | 5.85 | –
O=C(NCCCNC(=O)[C@H](OS(=O)(=O)O)[C@@H](OS(=O)(=O)O)[C@H](O[C@@H]1O[C@H](COS(=O)(=O)O)[C@H](OS(=O)(=O)O)[C@H](OS(=O)(=O)O)[C@H]1OS(=O)(=O)O)[C@@H](COS(=O)(=O)O)OS(=O)(=O)O)[C@H](OS(=O)(=O)O)[C@@H](OS(=O)(=O)O)[C@H](O[C@@H]1O[C@H](COS(=O)(=O)O)[C@H](OS(=O)(=O)O)[C@H](OS(=O)(=O)O)[C@H]1OS(=O)(=O)O)[C@@H](COS(=O)(=O)O)OS(=O)(=O)O.[Na].[Na].[Na].[Na].[Na].[Na].[Na].[Na].[Na].[Na].[Na].[Na].[Na].[Na].[Na].[Na] [Example 20, Hexadecasodium N,N'-1,3-propanediylbis-[2,3,5,6-tetra-O-sulfo-4-O-(2,3,4,6-tetra-O-sulfo-β-D-galactopyranosyl)-D-gluconamide]] | 19.2 | 540 | 42.1 | Lengthening of the bleeding time (bleeding time; Dose 0.5 mg/kg): 5.1%; Lengthening of the bleeding time (bleeding time; Dose 2 mg/kg): 35.1%
Heparin [reference compound] | 14.8 | – | 175 | heparin activity of the standard [4]: 175 U/mg; Lengthening of the bleeding time (bleeding time; Dose 0.25 mg/kg): 55.4%; Lengthening of the bleeding time (bleeding time; Dose 0.5 mg/kg): 120%
COc1ccc2c(c1)c(CC(=O)O)c(C)n2C(=O)c1ccc(Cl)cc1 [Indomethacin, reference compound] | – | – | – | IC50 ([2]; zymosan-stimulated citrated rabbit blood, maximum chemiluminescence over 90 minutes): 240 µg/mL
O=C(NC1CCC(CC2CCC(NC(=O)[C@H](OS(=O)(=O)O)[C@@H](OS(=O)(=O)O)[C@H](O[C@@H]3O[C@H](COS(=O)(=O)O)[C@H](OS(=O)(=O)O)[C@H](OS(=O)(=O)O)[C@H]3OS(=O)(=O)O)[C@@H](COS(=O)(=O)O)OS(=O)(=O)O)CC2)CC1)[C@H](OS(=O)(=O)O)[C@@H](OS(=O)(=O)O)[C@H](O[C@@H]1O[C@H](COS(=O)(=O)O)[C@H](OS(=O)(=O)O)[C@H](OS(=O)(=O)O)[C@H]1OS(=O)(=O)O)[C@@H](COS(=O)(=O)O)OS(=O)(=O)O (stereo partly drawn) [Example 31, Hexadecasodium N,N'-4,4-dicylcohexylmethanediylbis-[2,3,5,6-tetra-O-sulfo-4-O-(2,3,4,6-tetra-O-sulfo-β-D-galactopyranosyl)-D-gluconamide]] | – | – | 10.2 | –
O=C(NCCCOCCCCOCCCNC(=O)[C@H](OS(=O)(=O)O)[C@@H](OS(=O)(=O)O)[C@H](O[C@@H]1O[C@H](COS(=O)(=O)O)[C@H](OS(=O)(=O)O)[C@H](OS(=O)(=O)O)[C@H]1OS(=O)(=O)O)[C@@H](COS(=O)(=O)O)OS(=O)(=O)O)[C@H](OS(=O)(=O)O)[C@@H](OS(=O)(=O)O)[C@H](O[C@@H]1O[C@H](COS(=O)(=O)O)[C@H](OS(=O)(=O)O)[C@H](OS(=O)(=O)O)[C@H]1OS(=O)(=O)O)[C@@H](COS(=O)(=O)O)OS(=O)(=O)O [Example 34, Hexadecasodium N,N'-1,12-(4,9-dioxadodecanediylbis)[2,3,5,6-tetra-O-sulfo-4-O-(2,3,4,6-tetra-O-sulfo-β-D-galactopyranosyl)-D-gluconamide]] | – | – | 15.1 | –
O=C(NCCCCCCCCCNC(=O)[C@H](OS(=O)(=O)O)[C@@H](OS(=O)(=O)O)[C@H](O[C@@H]1O[C@H](COS(=O)(=O)O)[C@H](OS(=O)(=O)O)[C@H](OS(=O)(=O)O)[C@H]1OS(=O)(=O)O)[C@@H](COS(=O)(=O)O)OS(=O)(=O)O)[C@H](OS(=O)(=O)O)[C@@H](OS(=O)(=O)O)[C@H](O[C@@H]1O[C@H](COS(=O)(=O)O)[C@H](OS(=O)(=O)O)[C@H](OS(=O)(=O)O)[C@H]1OS(=O)(=O)O)[C@@H](COS(=O)(=O)O)OS(=O)(=O)O.[Na].[Na].[Na].[Na].[Na].[Na].[Na].[Na].[Na].[Na].[Na].[Na].[Na].[Na].[Na].[Na] [Example 24, Hexadecasodium N,N'-1,9-nonanediylbis-[2,3,5,6-tetra-O-sulfo-4-O-(2,3,4,6-tetra-O-sulfo-β-D-galactopyranosyl)-D-gluconamide]] | 17.8 | 220 | 14.1 | –

Reference: patent US5008247A, “Polysulfuric acid esters of bis-aldonamides and their derivatives, process for their preparation and medicaments” (Luitpold-Werk Chemisch-pharmazeutische Fabrik GmbH & Co., priority 1987, dated 1991)
